These results are taken from publication PMC11137198 (Frontiers in Pharmacology, 2024).

Data set [1] has as its target T1, HSA (Homo sapiens, UniProt P02768).
T1 construct: purchased Sigma-Aldrich
The experiment in a line: Binding constant (K B) by modified Scatchard analysis from UV absorption and fluorescence. As to conditions: binding constant within HSA, PBS. The protocol:
(§1) To calculate the K B values by means of UV absorption spectroscopy, the same Eq. 1 has been applied but using A instead of F.
An additional point to address is the strength of interaction of the drug and its two metabolites within HSA, since it is key for their transport to the specific targets and for their toxicological activity. […] To this end, a modified Scatchard analysis was performed (Supplementary Figures S6–S8).

For data set [2], the system named is HAG. Set-up: species or system human. The conditions noted are these: binding constant within HAG, PBS.
Excerpt: as §1
Competing interactions on mixtures containing the drug and a metabolite in the presence of HAG confirmed the consistency of the determined binding constants.

The target of data set [3] is T2, HAG (Homo sapiens, UniProt P02763).
T2 construct: α1-acid glycoprotein from human plasma (HAG) were purchased from Sigma-Aldrich; purchased Sigma-Aldrich; host or cells: human plasma
It counts as physicochemical. The conditions noted are these: HAG-bound; for weight of τ1 component / weight of τ2 component / τ2 / τ1: two-exponential fit; for τ2: long component; for τ1: short component; for λmax (fluorescence): 1:1 (10 μM). The procedure: (§2) Steady-state fluorescence spectra were recorded on an Edinburgh FS5 spectrofluorometer, provided with a monochromator in the wavelength range of 200–900 nm using an excitation wavelength of 340 nm at room temperature. Measurements on drug@protein complexes were performed in aerated PBS of 1:1 M ratio mixtures at 10 µM. The absorbance of the samples at the excitation wavelength was kept below 0.1. The fluorescence quantum yields were determined using anthracene in ethanol as reference ([Montalti et al., 2006]).
(§3) Time-resolved fluorescence measurements were performed with an EasyLife X system containing a sample compartment composed of an automated peltier cuvette holder to control the temperature at 24°C, a pulsed LED excitation source and a lifetime detector. The employed LED excitation source was 340 nm, with emission filter of WG370. The fluorescence lifetimes (τF) were obtained upon fitting the decay traces by a non-linear fitting/deconvolution procedure F(t) = Σa i ·exp(-t/τ i ) by means of a one- or two-exponential function, depending on the investigated system. All spectroscopic measurements were done in 10 × 10 mm^2 quartz cuvettes at room temperature.
The insets show the normalized spectra. For ligand@protein complexes, solutions were at 1:1 M ratio (10 μM).

The subject of the next data set is HSA and HAG. Kind of data set: Competing interactions in an equimolar mixture of the two proteins (fluorescence). Type of data set: binding, human. As to conditions: fluorescence emission, λexc = 340 nm.
Data set [4] concerns the target T1, HSA. The conditions noted are these: HSA-bound, λexc = 340 nm, PBS; ref 36 (Tamarit et al., 2022); cited from earlier work.
A further data set has as its system cellular milieu. The arrangement: method as in El Ouardi et al., 2023. As to conditions: UVA light, biological media; ref El Ouardi et al., 2023; cited from earlier work.
Details of data set [5]: method as in Tamarit et al., 2021; Tamarit et al., 2022. As to conditions: cyclohexane, ref Tamarit et al., 2021, 2022; cited from earlier work.
In data set [6] the target is T1, HSA. The experiment in a line: Steady-state and time-resolved fluorescence of ligand@HSA complexes. Type of data set: physicochemical. As to conditions: HSA-bound. The procedure: as §2, §3
FIGURE 2 (A) Fluorescence spectra for GFT-M2 in PBS (gray) and for GFT-M2@HSA (green). […] Measurements were performed at λexc = 340 nm in PBS; for ligand@HSA complexes, solutions were at 1:1 M ratio (10 μM).

Data set [7] can be described thus: Fluorescence of free ligand in organic solvents or PBS. It counts as physicochemical. The procedure:
as §2, §3
An important point to discuss is the low fluorescence yield value of GFT-M2 within the protein cavities (ϕF ∼ 0.01) compared with that obtained in cyclohexane (ϕF ∼ 0.13). […] It is worth to mention that this is a dynamic process that lowers τF values ([Tamarit et al., 2021]; [Tamarit et al., 2022]). With the aim of investigating this possibility for GFT-M2, fluorescence measurements were performed in the non-polar solvent toluene in the presence of increasing amounts of Tyr and Trp (due to solubility requirements, the N-acetyl methyl ester amino acid derivatives, namely, NAc-TyrMe or NAc-TrpMe, were used). […] It is worth to mention that using either Tyr or Trp as quenchers, a new band with λmax ∼ 490 nm arose at high amino acid concentrations (insets of Figure 3); this is attributed to emission from phenolate-like species involving interaction between hydrogen-bonded GFT-M2 and Tyr (or Trp) in the ground state. However, and as discussed above, these species have not been observed in the supramolecular GFT-M2@HSA complex, since LE states predominate. Therefore, it would exist an additional deactivation route for ^1GFT-M2* within the protein, which would be strongly affected by the conformational arrangement of the metabolite in the binding sites (see the discussion on MD simulations).

[8] abbreviates: λexc = 340 nm, PBS, 1:1 (10 μM).

SMILES strings stand for the structures. Values joined by “and” are separate entries in the source; they are usually repeats but may differ in a detail not shown here. Identical values can stand only once. Like-named read-outs stand apart in the source and are kept apart here. Marks after values point to notes of the source that are not given here.

T2 sequence (P02763 19-201): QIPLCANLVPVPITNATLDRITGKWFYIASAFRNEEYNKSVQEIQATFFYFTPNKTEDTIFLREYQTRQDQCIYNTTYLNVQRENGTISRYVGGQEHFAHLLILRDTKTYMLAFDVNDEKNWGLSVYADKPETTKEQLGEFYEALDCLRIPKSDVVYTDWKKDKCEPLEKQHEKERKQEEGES
T1 sequence (P02768 25-609): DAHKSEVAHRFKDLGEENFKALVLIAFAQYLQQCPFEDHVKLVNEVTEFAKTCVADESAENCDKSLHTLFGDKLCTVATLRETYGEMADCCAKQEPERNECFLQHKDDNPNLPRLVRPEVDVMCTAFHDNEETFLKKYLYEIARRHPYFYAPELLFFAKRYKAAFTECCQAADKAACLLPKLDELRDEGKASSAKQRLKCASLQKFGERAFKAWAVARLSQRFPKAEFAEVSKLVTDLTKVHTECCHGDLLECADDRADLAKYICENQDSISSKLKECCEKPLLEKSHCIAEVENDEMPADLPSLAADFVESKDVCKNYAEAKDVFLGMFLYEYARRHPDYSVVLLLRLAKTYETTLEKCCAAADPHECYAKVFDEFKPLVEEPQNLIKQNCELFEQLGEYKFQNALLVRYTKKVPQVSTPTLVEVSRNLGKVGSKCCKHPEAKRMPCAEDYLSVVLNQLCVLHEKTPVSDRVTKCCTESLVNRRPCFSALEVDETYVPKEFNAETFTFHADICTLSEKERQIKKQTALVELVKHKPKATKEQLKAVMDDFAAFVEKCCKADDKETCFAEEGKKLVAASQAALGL

For the compound `COc1cc2ncnc(Nc3ccc(F)c(Cl)c3)c2cc1O` [GFT-M1, O-desmorpholinopropyl gefitinib], on HSA [1], the “K B” value is given as 1.2 ± 0.06 × 10^5 M^-1. In addition, the “K B” value in the data set with HAG [2] was 9.1 ± 0.32 × 10^4 M^-1. On HAG [3], the “weight of τ1 component” value is on record as 28%, the “weight of τ2 component” value is on record as 72%, the τ2 is listed as about 3.1 ns and the τ1 is about 0.5 ns. Moreover, on HAG [3] (λexc = 340 nm, PBS), the ϕF is listed as 0.04 and the “λmax (fluorescence)” value is about 442 nm. In addition, the “relative affinity in equimolar mixture of HSA and HAG” value in the data set with HSA and HAG is listed as “higher affinity to HSA”. On HSA [4], the τF is recorded as 2.5 ^b ns and the ϕF is on record as 0.15 ^b. Further, the phototoxicity result in the data set with cellular milieu is recorded as “highest phototoxicity”.

Regarding `COc1cc2ncnc(Nc3ccc(F)c(Cl)c3)c2cc1OCCCN1CCOCC1` [GFT, gefitinib, reference compound], the “K B” value with HAG [2] is 1.2 × 10^5 M^-1 and 1.2 ± 0.08 × 10^5 M^-1. The ϕF was 0.03 at HAG [3] (λexc = 340 nm, PBS) and about 0.19 in data set [5]. In addition, the τF at HAG [3] (λexc = 340 nm, PBS, one-exponential fit, or mean lifetime where marked d) is given as 0.8 ns.

For the compound `Oc1cc2ncnc(Nc3ccc(F)c(Cl)c3)c2cc1OCCCN1CCOCC1` [GFT-M2, O-desmethyl gefitinib], the “K B” value was 1.8 ± 0.16 × 10^5 M^-1 at HSA [1]; 1.5 × 10^5 M^-1 and 1.5 ± 0.05 × 10^5 M^-1 with HAG [2]. Moreover, the results for the “weight of τ1 component” value at HSA [6] (two-exponential fit) and at HAG [3] were 75% and 35%, respectively. The results for the “weight of τ2 component” value at HSA [6] (two-exponential fit) and at HAG [3] were 25% and 65%, respectively. In addition, the τ2 on HSA [6] (two-exponential fit, long component) was found to be 4.9 ns; at HAG [3] it was 4.1 ns. For the same compound, the τ1 on HSA [6] (two-exponential fit, short component) is recorded as 0.6 ns; on HAG [3], 0.7 ns. The “λmax (fluorescence)” value was about 388 nm at HSA [6] (setting [8]) and about 446 nm on HAG [3] (λexc = 340 nm, PBS). For the same compound, the ϕF was about 0.01 at HSA [6] (setting [8]); 0.03 at HAG [3] (λexc = 340 nm, PBS); about 0.13 in data set [7] (cyclohexane). Besides, at HSA [6] (λexc = 340 nm, PBS, mean lifetime <τF> = a1τ1 + a2τ2), the τF is given as 1.0^d ns. In addition, on HAG [3] (λexc = 340 nm, PBS, value between brackets), the “shoulder detected in the fluorescence spectrum” value is recorded as about 388 nm. Also, the fluorescence maximum entry in [7] (free in the bulk solution (PBS), λexc = 340 nm) is “ca. 440 nm”. For the same compound, the “fluorescence maximum λmax” value in data set [7] (non-polar solvents) is “ca. 390 nm”. In addition, the “λmax of new band at high amino acid concentrations” value in [7] (toluene, Tyr or Trp as quenchers, phenolate-like species) is about 490 nm. Besides, the “fluorescence lifetime of the LE singlet state” value in [7] (toluene, with NAc-TyrMe or NAc-TrpMe at molar ratios 1:50 to 1:300) is given as “ca. 2.42 ns”. Besides, the phototoxicity entry in the data set on cellular milieu was “much less phototoxic”.
